Reference: patent publication US7407973B2, “Use of pirfenidone in therapeutic regimens” (Intermune, Inc., priority 2003, dated 2008)

Tests used:
Assay type in all cases: biochemical
Aurora-A = Aurora-A (Homo sapiens, UniProt O14965); experiment: Enzymatic activity of human kinase in presence of pirfenidone; conditions: percent of control activity in absence of pirfenidone, concentration not given
Procedure: (§1) Enzymatic activity of various human kinases was assayed in the presence and the absence of pirfenidone. Percent enzyme activity of various human enzymes in the presence of substrate and pirfenidone are shown in FIGS. 1-5, and in Table 2, below, where “percent enzyme activity” is the percent of the control activity (e.g., in the absence of pirfenidone): […]

Ax1 = Ax1 (Homo sapiens, UniProt P30530); experiment: as above; conditions: percent of control activity in absence of pirfenidone, concentration not given
Procedure: as §1

Bmx = Bmx (Homo sapiens, UniProt P51813); experiment: as above; conditions: percent of control activity in absence of pirfenidone, concentration not given
Procedure: as §1

CDK2/cyclinA = CDK2/cyclinA (Homo sapiens, UniProt P24941); experiment: as above; conditions: percent of control activity in absence of pirfenidone, concentration not given
Procedure: as §1

CDK2/cyclinE = CDK2/cyclinE (Homo sapiens, UniProt P24941); experiment: as above; conditions: percent of control activity in absence of pirfenidone, concentration not given
Procedure: as §1

CDK3/cyclinE = CDK3/cyclinE (Homo sapiens, UniProt Q00526); experiment: as above; conditions: percent of control activity in absence of pirfenidone, concentration not given
Procedure: as §1

CDK5/cyclinB = CDK5/cyclinB (Homo sapiens, UniProt Q00535); experiment: as above; conditions: percent of control activity in absence of pirfenidone, concentration not given
Procedure: as §1

CDK7/cyclinD3 = experiment: as above; conditions: percent of control activity in absence of pirfenidone, concentration not given
Procedure: as §1

CDK7/cyclinH/MAT1 = CDK7/cyclinH/MAT1 (Homo sapiens, UniProt P50613); experiment: as above; conditions: percent of control activity in absence of pirfenidone, concentration not given
CDK7/cyclinH/MAT1, sequence (P50613 whole entry): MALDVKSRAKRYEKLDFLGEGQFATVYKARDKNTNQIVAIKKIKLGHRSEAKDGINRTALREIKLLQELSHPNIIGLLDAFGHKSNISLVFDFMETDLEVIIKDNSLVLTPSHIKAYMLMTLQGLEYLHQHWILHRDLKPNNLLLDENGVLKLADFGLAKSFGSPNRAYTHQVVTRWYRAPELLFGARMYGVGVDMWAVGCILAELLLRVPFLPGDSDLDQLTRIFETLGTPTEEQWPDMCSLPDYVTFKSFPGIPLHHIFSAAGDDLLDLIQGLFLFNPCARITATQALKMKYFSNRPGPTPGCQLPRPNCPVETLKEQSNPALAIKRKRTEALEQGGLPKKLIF
CDK7/cyclinH/MAT1, sequence (P51946 whole entry partner): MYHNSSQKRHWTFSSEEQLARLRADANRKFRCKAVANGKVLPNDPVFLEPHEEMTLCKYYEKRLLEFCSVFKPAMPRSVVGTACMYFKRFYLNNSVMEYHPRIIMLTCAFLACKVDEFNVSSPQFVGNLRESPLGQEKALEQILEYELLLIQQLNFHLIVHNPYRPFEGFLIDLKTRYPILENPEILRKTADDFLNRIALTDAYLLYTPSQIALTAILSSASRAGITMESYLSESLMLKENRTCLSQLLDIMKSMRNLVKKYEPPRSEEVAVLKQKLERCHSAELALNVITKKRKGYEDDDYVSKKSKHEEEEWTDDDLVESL
CDK7/cyclinH/MAT1, sequence (P51948 whole entry partner): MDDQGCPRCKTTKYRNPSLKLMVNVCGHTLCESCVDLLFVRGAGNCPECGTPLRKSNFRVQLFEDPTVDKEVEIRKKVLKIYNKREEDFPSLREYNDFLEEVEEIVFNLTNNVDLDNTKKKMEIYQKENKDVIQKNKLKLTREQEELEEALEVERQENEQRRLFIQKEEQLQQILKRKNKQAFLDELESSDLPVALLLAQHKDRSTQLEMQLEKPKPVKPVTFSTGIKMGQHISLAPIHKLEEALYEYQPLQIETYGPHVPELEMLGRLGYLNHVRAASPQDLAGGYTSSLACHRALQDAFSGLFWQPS
Procedure: as §1

CHK1 = CHK1 (Homo sapiens, UniProt O14757); experiment: as above; conditions: percent of control activity in absence of pirfenidone, concentration not given
CHK1, sequence (O14757 whole entry): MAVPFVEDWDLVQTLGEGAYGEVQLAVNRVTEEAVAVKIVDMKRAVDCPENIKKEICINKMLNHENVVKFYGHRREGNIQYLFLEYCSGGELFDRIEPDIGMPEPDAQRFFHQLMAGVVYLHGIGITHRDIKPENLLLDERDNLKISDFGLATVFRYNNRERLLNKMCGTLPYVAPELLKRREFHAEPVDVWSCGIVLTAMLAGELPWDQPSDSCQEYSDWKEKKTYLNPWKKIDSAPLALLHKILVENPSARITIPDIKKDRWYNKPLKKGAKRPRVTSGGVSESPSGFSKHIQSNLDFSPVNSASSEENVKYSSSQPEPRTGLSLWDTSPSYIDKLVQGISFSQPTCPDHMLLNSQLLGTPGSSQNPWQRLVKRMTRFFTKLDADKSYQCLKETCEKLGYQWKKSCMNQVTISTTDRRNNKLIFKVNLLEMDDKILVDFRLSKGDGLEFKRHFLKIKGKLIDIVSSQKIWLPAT
Procedure: as §1

CSK = CSK (Homo sapiens, UniProt P41240); experiment: as above; conditions: percent of control activity in absence of pirfenidone, concentration not given
Procedure: as §1

CaMKIV = CaMKIV (Homo sapiens, UniProt Q16566); experiment: as above; conditions: percent of control activity in absence of pirfenidone, concentration not given
Procedure: as §1

FGFR3 = FGFR3 (Homo sapiens, UniProt P22607); experiment: as above; conditions: percent of control activity in absence of pirfenidone, concentration not given
FGFR3, sequence (P22607 23-806): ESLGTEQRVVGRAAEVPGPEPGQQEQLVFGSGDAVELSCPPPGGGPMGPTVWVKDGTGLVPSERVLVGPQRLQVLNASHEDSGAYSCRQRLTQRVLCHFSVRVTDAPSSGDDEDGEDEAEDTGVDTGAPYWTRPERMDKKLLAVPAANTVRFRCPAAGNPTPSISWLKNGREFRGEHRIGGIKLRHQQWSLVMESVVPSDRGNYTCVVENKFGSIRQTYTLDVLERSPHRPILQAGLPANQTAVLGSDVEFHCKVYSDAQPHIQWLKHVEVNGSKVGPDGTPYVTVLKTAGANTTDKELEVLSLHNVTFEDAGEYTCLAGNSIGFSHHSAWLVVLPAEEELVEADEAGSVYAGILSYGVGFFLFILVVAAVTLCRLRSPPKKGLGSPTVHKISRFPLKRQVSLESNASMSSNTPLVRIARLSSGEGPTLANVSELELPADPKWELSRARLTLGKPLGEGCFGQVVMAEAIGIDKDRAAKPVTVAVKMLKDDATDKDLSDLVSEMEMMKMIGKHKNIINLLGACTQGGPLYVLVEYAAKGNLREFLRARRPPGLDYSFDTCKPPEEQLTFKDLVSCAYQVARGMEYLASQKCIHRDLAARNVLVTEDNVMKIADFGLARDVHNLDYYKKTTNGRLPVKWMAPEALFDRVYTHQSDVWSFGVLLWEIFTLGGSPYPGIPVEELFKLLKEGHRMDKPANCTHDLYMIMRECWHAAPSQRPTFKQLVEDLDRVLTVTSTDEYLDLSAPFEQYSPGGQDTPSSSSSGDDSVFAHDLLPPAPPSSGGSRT
Procedure: as §1

Fes = Fes (Homo sapiens, UniProt P07332); experiment: as above; conditions: percent of control activity in absence of pirfenidone, concentration not given
Procedure: as §1

GSK3α = GSK3α (Homo sapiens, UniProt P49840); experiment: as above; conditions: percent of control activity in absence of pirfenidone, concentration not given
GSK3α, sequence (P49840 whole entry): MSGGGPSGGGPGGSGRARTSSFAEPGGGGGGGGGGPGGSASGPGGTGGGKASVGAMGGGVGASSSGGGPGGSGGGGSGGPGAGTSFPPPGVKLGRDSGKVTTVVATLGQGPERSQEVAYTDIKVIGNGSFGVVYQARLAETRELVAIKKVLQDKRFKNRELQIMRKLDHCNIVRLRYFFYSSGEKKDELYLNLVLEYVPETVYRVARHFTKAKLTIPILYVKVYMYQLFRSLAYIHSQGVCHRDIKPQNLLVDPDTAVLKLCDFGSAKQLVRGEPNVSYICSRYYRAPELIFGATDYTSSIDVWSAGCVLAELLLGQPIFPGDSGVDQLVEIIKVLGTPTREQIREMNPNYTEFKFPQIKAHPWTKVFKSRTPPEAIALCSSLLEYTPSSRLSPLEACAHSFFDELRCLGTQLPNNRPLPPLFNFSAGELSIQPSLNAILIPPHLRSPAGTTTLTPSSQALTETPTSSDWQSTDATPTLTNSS
Procedure: as §1

IGF-1R = IGF-1R (Homo sapiens, UniProt P08069); experiment: as above; conditions: percent of control activity in absence of pirfenidone, concentration not given
Procedure: as §1

IR = IR (Homo sapiens, UniProt P06213); experiment: as above; conditions: percent of control activity in absence of pirfenidone, concentration not given
Procedure: as §1

JNK1 = JNK1 (Homo sapiens, UniProt P45983); experiment: as above; conditions: percent of control activity in absence of pirfenidone, concentration not given
Procedure: as §1

JNK3 = JNK3 (Homo sapiens, UniProt P53779); experiment: as above; conditions: percent of control activity in absence of pirfenidone, concentration not given
Procedure: as §1

MAPK1 (Homo sapiens) = experiment: as above; conditions: percent of control activity in absence of pirfenidone, concentration not given
Procedure: as §1

MAPK2 = MAPK2 (Homo sapiens, UniProt P28482); experiment: as above; conditions: percent of control activity in absence of pirfenidone, concentration not given
Procedure: as §1

MKK7β = MKK7β (Homo sapiens, UniProt O14733); experiment: as above; conditions: percent of control activity in absence of pirfenidone, concentration not given
Procedure: as §1

MSK1 = MSK1 (Homo sapiens, UniProt O75582); experiment: as above; conditions: percent of control activity in absence of pirfenidone, concentration not given
Procedure: as §1

PAK2 = PAK2 (Homo sapiens, UniProt Q13177); experiment: as above; conditions: percent of control activity in absence of pirfenidone, concentration not given
Procedure: as §1

PDGFR = PDGFR (Homo sapiens, UniProt P16234); experiment: as above; conditions: percent of control activity in absence of pirfenidone, concentration not given
Procedure: as §1

PDGFRβ = PDGFRβ (Homo sapiens, UniProt P09619); experiment: as above; conditions: percent of control activity in absence of pirfenidone, concentration not given
Procedure: as §1

PKA = PKA (Homo sapiens, UniProt P17612); experiment: as above; conditions: percent of control activity in absence of pirfenidone, concentration not given
Procedure: as §1

PKBα = PKBα (Homo sapiens, UniProt P31749); experiment: as above; conditions: percent of control activity in absence of pirfenidone, concentration not given
Procedure: as §1

PKBβ = PKBβ (Homo sapiens, UniProt P31751); experiment: as above; conditions: percent of control activity in absence of pirfenidone, concentration not given
Procedure: as §1

PKCo = experiment: as above; conditions: percent of control activity in absence of pirfenidone, concentration not given
Procedure: as §1

PKCα = PKCα (Homo sapiens, UniProt P17252); experiment: as above; conditions: percent of control activity in absence of pirfenidone, concentration not given
Procedure: as §1

PKCδ = PKCδ (Homo sapiens, UniProt Q05655); experiment: as above; conditions: percent of control activity in absence of pirfenidone, concentration not given
PKCδ, sequence (Q05655 whole entry): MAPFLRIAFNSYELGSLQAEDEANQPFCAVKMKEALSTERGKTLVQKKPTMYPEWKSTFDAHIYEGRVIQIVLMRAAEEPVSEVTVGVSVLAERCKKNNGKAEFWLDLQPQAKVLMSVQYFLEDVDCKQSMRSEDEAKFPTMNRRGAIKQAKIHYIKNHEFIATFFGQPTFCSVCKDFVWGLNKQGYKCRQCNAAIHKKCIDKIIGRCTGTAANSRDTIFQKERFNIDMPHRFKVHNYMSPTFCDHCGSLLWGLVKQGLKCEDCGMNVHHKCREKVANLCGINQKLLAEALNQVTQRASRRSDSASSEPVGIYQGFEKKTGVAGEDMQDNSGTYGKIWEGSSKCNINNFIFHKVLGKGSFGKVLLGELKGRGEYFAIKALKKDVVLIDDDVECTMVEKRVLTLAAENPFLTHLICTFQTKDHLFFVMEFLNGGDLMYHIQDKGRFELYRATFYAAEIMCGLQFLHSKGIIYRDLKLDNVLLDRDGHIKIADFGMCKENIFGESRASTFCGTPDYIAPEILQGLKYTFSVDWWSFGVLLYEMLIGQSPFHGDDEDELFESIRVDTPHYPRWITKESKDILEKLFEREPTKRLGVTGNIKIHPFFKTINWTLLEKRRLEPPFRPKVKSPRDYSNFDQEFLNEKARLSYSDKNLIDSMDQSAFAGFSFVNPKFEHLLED
Procedure: as §1

PKCτ = experiment: as above; conditions: percent of control activity in absence of pirfenidone, concentration not given
Procedure: as §1

PKD2 = PKD2 (Homo sapiens, UniProt Q9BZL6); experiment: as above; conditions: percent of control activity in absence of pirfenidone, concentration not given
PKD2, sequence (Q9BZL6 whole entry): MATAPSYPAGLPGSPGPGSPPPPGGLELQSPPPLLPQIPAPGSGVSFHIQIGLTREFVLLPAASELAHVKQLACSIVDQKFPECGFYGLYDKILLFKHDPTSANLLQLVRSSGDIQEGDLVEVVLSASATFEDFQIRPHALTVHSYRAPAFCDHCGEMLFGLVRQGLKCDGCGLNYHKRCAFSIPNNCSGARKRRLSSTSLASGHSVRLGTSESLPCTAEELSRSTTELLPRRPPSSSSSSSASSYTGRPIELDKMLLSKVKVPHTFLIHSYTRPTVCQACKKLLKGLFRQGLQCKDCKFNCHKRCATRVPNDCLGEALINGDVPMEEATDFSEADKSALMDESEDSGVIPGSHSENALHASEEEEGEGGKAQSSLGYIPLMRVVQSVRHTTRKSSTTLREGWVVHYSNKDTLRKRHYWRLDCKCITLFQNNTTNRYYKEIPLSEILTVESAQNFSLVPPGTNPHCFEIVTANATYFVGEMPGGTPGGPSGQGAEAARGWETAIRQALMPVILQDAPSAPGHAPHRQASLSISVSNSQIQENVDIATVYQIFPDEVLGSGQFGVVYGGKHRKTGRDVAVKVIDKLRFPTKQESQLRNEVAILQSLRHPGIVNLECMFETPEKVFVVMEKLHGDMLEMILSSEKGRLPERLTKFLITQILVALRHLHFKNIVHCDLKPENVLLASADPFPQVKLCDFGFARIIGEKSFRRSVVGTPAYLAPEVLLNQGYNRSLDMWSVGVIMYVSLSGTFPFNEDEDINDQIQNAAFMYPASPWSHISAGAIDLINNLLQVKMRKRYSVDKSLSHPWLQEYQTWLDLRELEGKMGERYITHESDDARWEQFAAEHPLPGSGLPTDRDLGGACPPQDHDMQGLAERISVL
Procedure: as §1

PRAK = PRAK (Homo sapiens, UniProt Q8IW41); experiment: as above; conditions: percent of control activity in absence of pirfenidone, concentration not given
Procedure: as §1

ROCK-II = ROCK-II (Homo sapiens, UniProt O75116); experiment: as above; conditions: percent of control activity in absence of pirfenidone, concentration not given
Procedure: as §1

SAPK2α = SAPK2α (Homo sapiens, UniProt Q16539); experiment: as above; conditions: percent of control activity in absence of pirfenidone, concentration not given
Procedure: as §1

SAPK3 = SAPK3 (Homo sapiens, UniProt P53778); experiment: as above; conditions: percent of control activity in absence of pirfenidone, concentration not given
Procedure: as §1

TrkB = TrkB (Homo sapiens, UniProt Q16620); experiment: as above; conditions: percent of control activity in absence of pirfenidone, concentration not given
Procedure: as §1

ZAP-70 = ZAP-70 (Homo sapiens, UniProt P43403); experiment: as above; conditions: percent of control activity in absence of pirfenidone, concentration not given
Procedure: as §1

c-RAF = c-RAF (Homo sapiens, UniProt P04049); experiment: as above; conditions: percent of control activity in absence of pirfenidone, concentration not given
c-RAF, sequence (P04049 whole entry): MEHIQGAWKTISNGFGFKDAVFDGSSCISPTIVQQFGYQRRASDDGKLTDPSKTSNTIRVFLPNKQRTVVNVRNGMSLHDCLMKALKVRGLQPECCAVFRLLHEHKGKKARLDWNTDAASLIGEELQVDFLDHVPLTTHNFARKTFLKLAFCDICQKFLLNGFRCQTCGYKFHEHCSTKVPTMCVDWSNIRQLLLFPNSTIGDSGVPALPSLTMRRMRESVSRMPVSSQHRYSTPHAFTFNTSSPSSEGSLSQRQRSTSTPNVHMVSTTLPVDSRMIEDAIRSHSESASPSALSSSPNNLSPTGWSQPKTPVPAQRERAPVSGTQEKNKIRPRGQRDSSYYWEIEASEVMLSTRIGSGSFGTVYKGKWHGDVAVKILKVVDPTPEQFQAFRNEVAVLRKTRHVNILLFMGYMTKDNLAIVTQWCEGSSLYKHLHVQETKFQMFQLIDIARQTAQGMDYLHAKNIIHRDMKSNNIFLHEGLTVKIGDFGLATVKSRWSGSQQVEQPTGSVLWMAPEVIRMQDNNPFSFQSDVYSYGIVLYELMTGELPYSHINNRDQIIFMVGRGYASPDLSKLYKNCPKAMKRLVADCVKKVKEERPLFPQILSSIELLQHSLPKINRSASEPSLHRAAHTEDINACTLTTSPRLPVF
Procedure: as §1

p70S6K = p70S6K (Homo sapiens, UniProt P23443); experiment: as above; conditions: percent of control activity in absence of pirfenidone, concentration not given
Procedure: as §1

SAPK = experiment: Human kinase panel, overall conclusion: SAPK
Procedure: as §1

- % Activity (Aurora-A): 120%
- % Activity (Ax1): 93%
- % Activity (Bmx): 86%
- % Activity (CDK2/cyclinA): 92%
- % Activity (CDK2/cyclinE): 89%
- % Activity (CDK3/cyclinE): 86%
- % Activity (CDK5/cyclinB): 102%
- % Activity (CDK7/cyclinD3): 92%
- % Activity (CDK7/cyclinH/MAT1): 95%
- % Activity (CHK1): 105%
- % Activity (CSK): 64%
- % Activity (CaMKIV): 107%
- % Activity (FGFR3): 104%
- % Activity (Fes): 88%
- % Activity (GSK3α): 91%
- % Activity (IGF-1R): 92%
- % Activity (IR): 97%
- % Activity (JNK1): 105%
- % Activity (JNK3): 106%
- % Activity (MAPK1 (Homo sapiens)): 98%
- % Activity (MAPK2): 100%
- % Activity (MKK7β): 105%
- % Activity (MSK1): 93%
- % Activity (PAK2): 93%
- % Activity (PDGFR): 101%
- % Activity (PDGFRβ): 101%
- % Activity (PKA): 109%
- % Activity (PKBα): 88%
- % Activity (PKBβ): 88%
- % Activity (PKCo): 106%
- % Activity (PKCα): 94%
- % Activity (PKCδ): 102%
- % Activity (PKCτ): 96%
- % Activity (PKD2): 98%
- % Activity (PRAK): 90%
- % Activity (ROCK-II): 90%
- % Activity (SAPK2α): 70%
- % Activity (SAPK3): 46%
- % Activity (TrkB): 101%
- % Activity (ZAP-70): 109%
- % Activity (c-RAF): 91%
- % Activity (p70S6K): 96%
- Inhibition of SAPK (conclusion from Table 2 data) (SAPK): is an inhibitor of SAPK
Compound: Cc1ccc(=O)n(-c2ccccc2)c1 [pirfenidone, 5-methyl-1-phenyl-2-(1H)-pyridone]
